Measured values from US9649285B2, “Treatment of medium-chain acyl-CoA dehydrogenase deficiency” (UNIVERSITY OF PITTSBURGH—OF THE COMMONWEALTH SYSTEM OF …, priority 2012, dated 2017).
Positions count from the first letter of the chain named.

Experiments:
[1] = test system: extracts from wild type fibroblast cells (GM085401); experiment: ETF fluorescence reduction assay of cell extract, wild type fibroblasts; format: biochemical, human; conditions: 30 μM substrate
Protocol: (§1) Fibroblast Cell Culture and Extract Preparation.
(§2) Wild type and MCAD deficient cells (homozygous for the K304E mutation) with the designation GM085401 and GM07844, respectively, were obtained form Coriell Institute for Medical Research, Camden, N.J. Cells were cultured in DMEM medium supplemented with glutamine and ampicillin and streptomycin, and 20% fetal bovine serum. Cells were harvested from a T175 flask by sonication with a buffer consisting of 50 mM Tris buffer and 10 mM EDTA, pH 8.0. The cell debris was removed by centrifugation and the cell free extract was assayed for protein and enzyme activity as described below.
(§3) ETF Fluorescence Reduction Assay.
(§4) The ETF reduction assay was performed using a Jasco FP-6300 spectrofluorometer (Easton, Md.) with a cuvette holder heated with circulating water at 32° C. The assay was otherwise performed as described (22), at the indicated substrate concentrations. The enzyme was diluted 1200-fold into a buffer containing 50 mM Tris, pH 8.0, 5 mM EDTA and 50% glycerol, and […] were used for each assay. The ETF concentration in the reaction mixture was 2 μM. Spectra Manager 2 software (Jasco Inc) was used to collect data and calculate reaction rate and Microsoft Excel was used to calculate the kinetic parameters.

[2] = test system: extract from fibroblast cells deficient in MCAD (GM07844, homozygous K304E); experiment: ETF fluorescence reduction assay of cell extract, MCAD deficient fibroblasts; format: biochemical, human; conditions: similar amounts of extract
Protocol: as §1, §2, §3, §4

[3] = target: T1, partially purified recombinant human LCAD (Homo sapiens, UniProt P28330); experiment: ETF fluorescence reduction assay with LCAD; format: biochemical
T1 construct: made in house
T1 sequence (P28330 31-430): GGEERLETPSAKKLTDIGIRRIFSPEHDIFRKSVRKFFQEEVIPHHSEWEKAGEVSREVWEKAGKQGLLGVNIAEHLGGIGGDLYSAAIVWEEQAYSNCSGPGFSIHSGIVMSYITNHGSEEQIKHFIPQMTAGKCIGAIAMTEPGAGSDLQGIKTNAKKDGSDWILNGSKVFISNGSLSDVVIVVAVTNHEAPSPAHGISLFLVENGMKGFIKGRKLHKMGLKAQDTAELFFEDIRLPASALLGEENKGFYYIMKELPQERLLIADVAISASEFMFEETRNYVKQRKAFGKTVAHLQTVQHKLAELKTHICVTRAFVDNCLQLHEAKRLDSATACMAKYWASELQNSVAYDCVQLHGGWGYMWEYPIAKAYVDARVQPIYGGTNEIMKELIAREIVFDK

[4] = target: T2, purified recombinant human MCAD (Homo sapiens, UniProt P11310); experiment: Formation of the charge transfer complex (reductive half-reaction), absorbance at 447/570 nm; format: binding; conditions: Stockell plot, substrate:subunit ratio 1:1; enzyme 25.2 μM; anaerobic, pH 8.0; read-out: apparent dissociation constant (KD app)
T2 construct: made in house; host or cells: E. coli JM105, co-expressed with GroEL/GroES
T2 sequence (P11310 26-421): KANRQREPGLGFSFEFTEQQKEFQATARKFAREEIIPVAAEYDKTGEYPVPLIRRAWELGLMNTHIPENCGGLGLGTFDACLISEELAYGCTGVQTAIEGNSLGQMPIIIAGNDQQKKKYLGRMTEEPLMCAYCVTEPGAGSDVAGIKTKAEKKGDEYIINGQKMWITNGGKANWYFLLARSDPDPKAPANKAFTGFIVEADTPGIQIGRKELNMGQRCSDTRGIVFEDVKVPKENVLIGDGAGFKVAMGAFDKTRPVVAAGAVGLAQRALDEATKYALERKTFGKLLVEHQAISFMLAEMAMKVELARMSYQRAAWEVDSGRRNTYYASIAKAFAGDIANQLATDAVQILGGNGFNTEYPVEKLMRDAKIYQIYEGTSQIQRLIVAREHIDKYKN
Protocol: (§5) Purification of Recombinant Human MCAD.
(§6) Expression and purification of recombinant human MCAD was performed as previously described for isovaleryl-CoA dehydrogenase with minor modifications (18). E. coli JM105 cells (Amersham Biosciences Corp; Piscataway, N.J.) containing the human MCAD high expression vector pKeMCAD (19) and a GroEL/GroES expression plasmid were grown overnight in a 200-ml LB broth pre-culture that was used to inoculate 4×2-L cultures in 2-YT broth. The cells were left to grow overnight at 37° C. with shaking and MCAD expression was induced the next morning using IPTG at a final concentration of 0.5 mM for 3 hrs. Cells were harvested by centrifugation and resuspended at 4° C. in 2:1 weight to volume of 100 mM potassium phosphate pH 8.0, 150 mM EDTA. Cells were then lysed by sonication on ice. […]
Formation of the charge transfer ternary complex was monitored by observing the increase in absorbance at the 570 nm area, concomitant with the decrease of absorbance at 447 nm area, of the purified MCAD in 120 mM potassium phosphate spectrum under anaerobic conditions using a Jasco V-650 Spectrophotometer. […] Ten seconds of equilibration time were allowed after mixing and the sample was scanned for UV/Visible light absorbance at 250 to 800 nm. […] The “apparent” productive-binding constant (Kd app) was calculated with the following equation: […]

recombinant human MCAD = target: T3, recombinant human MCAD (Homo sapiens, UniProt P11310); experiment: ETF fluorescence reduction assay with purified MCAD (oxidative half-reaction); format: biochemical
T3 construct: made in house; host or cells: E. coli JM105, co-expressed with GroEL/GroES
T3 sequence (P11310 26-421): T2 sequence (P11310 26-421)
Protocol: as §5
as §6, with “ice. Including high amounts of EDTA in the cell lysis buffer can protect residues with groups, e.g., cysteine thiols and methionine sulfide groups, vulnerable to modification by oxygen reactive species generated during sonication cell suspension. This was effective in improving enzyme preparations resulting higher specific activity and consistent kinetic behavior. Cellular debris was removed by centrifugation first at 250,000×g for 60 minutes each.” for “ice.”
(§7) ETF Fluorescence Reduction Assay. […]

Purified SCAD = target: T4, Purified SCAD (Homo sapiens, UniProt P16219); experiment: ETF fluorescence reduction assay with SCAD; format: biochemical
T4 construct: made in house
T4 sequence (P16219 25-412): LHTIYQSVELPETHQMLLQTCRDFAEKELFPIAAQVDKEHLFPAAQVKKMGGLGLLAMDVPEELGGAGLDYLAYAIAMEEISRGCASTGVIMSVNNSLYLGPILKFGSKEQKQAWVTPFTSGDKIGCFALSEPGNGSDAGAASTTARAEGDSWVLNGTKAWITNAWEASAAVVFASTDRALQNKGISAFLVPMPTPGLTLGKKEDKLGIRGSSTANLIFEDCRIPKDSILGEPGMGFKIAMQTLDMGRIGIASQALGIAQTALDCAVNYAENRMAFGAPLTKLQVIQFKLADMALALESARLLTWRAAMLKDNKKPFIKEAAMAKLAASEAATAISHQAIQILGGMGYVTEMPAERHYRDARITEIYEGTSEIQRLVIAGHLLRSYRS
Protocol: as §6, with “ice. Including high amounts of EDTA in the cell lysis buffer can protect residues with groups, e.g., cysteine thiols and methionine sulfide groups, vulnerable to modification by oxygen reactive species generated during sonication cell suspension. This was effective in improving enzyme preparations resulting higher specific activity and consistent kinetic behavior. Cellular debris was removed by centrifugation first at 250,000×g for 60 minutes each. The final supernatant was dialyzed for 4 hours with vigorous stirring in 50 mM potassium phosphate pH 8.0, at 4° C.” for “ice.”
as §7

Purified ACAD9 = target: T5, Purified ACAD9 (Homo sapiens, UniProt Q9H845); experiment: ETF fluorescence reduction assay with ACAD9; format: biochemical
T5 construct: made in house
T5 sequence (Q9H845 38-621): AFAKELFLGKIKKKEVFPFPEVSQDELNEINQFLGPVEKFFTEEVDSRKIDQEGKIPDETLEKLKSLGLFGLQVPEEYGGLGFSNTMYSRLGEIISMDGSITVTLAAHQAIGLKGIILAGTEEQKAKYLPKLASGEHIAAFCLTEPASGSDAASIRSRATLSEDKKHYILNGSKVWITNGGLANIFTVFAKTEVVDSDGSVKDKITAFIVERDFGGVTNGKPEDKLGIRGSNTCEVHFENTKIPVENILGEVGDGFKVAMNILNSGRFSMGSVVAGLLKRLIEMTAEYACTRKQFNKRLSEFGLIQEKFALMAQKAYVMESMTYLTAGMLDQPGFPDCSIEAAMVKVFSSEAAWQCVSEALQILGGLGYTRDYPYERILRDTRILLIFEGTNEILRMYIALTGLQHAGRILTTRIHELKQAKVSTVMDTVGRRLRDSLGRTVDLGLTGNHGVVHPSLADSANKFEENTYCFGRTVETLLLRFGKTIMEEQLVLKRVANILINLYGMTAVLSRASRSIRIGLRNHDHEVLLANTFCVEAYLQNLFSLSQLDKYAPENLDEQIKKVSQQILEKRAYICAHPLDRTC

MCAD K304E mutant = target: T6, MCAD K304E mutant (Homo sapiens, UniProt P11310, K329E); conditions: reported in ref. 27; cited from earlier work
T6 sequence (P11310 26-421 K329E): T2 sequence (P11310 26-421) with K304E

Compound	Enzyme specific activity [1]	Enzyme specific activity [2]	activity of LCAD with substrate [3]	Kd [4]	activity of MCAD with substrate (recombinant human MCAD)	activity of SCAD with substrate (Purified SCAD)	activity of ACAD9 with substrate (Purified ACAD9)	thermal stability of the MCAD K304E mutant (MCAD K304E mutant)
CCCCCCCCCCCCCCCC(=O)SCCNC(=O)CCNC(=O)[C@H](O)C(C)(C)COP(=O)(O)OP(=O)(O)OC[C@H]1O[C@@H](n2cnc3c(N)ncnc32)[C@H](O)[C@@H]1OP(=O)(O)O [palmitoyl-CoA]	9.10 (±2.13) nmoles ETF reduced x min^−1 x mg^−1	3.91 (±1.34) nmoles ETF reduced x min^−1 x mg^−1						
CC(C)CCCC(C)C(=O)SCCNC(=O)CCNC(=O)[C@H](O)C(C)(C)COP(=O)(O)OP(=O)(O)OC[C@H]1O[C@@H](n2cnc3c(N)ncnc32)[C@H](O)[C@@H]1OP(=O)(O)O (stereo partly drawn) [2,6-dimethylheptanoyl-CoA]			active					
CC(C)(COP(=O)(O)OP(=O)(O)OC[C@H]1O[C@@H](n2cnc3c(N)ncnc32)[C@H](O)[C@@H]1OP(=O)(O)O)[C@@H](O)C(=O)NCCC(=O)NCCSC(=O)CCCc1ccccc1 [phenylbutyryl-CoA]	3.41 (±0.53) nmoles ETF reduced x min^−1 x mg^−1	No activity	not active	2.16 µM	no activity	no activity	no activity	
CCCCCCCC(=O)SCCNC(=O)CCNC(=O)[C@H](O)C(C)(C)COP(=O)(O)OP(=O)(O)OC[C@H]1O[C@@H](n2cnc3c(N)ncnc32)[C@H](O)[C@@H]1OP(=O)(O)O [octanoyl-CoA]	4.01 (±1.34) nmoles ETF reduced x min^−1 x mg^−1	No activity		0.12 µM				provide thermal stability
CCCCCCCCCCCC(=O)SCCNC(=O)CCNC(=O)[C@H](O)C(C)(C)COP(=O)(O)OP(=O)(O)OC[C@H]1O[C@@H](n2cnc3c(N)ncnc32)[C@H](O)[C@@H]1OP(=O)(O)O [C12-CoA]			active					
